Experiments:
[1] = set-up: species or system mice; conditions: mouse, in vivo, sc
[2] = set-up: species or system mice; conditions: mouse, in vivo
[3] = set-up: species or system mice; conditions: mouse, in vivo, sc, 30 min

SMILES	ED50 (95% confidence limits) in the acetic acid writhing test [1]	anti-Mor effect (in words) [2]	AD50 (95% confidence limits), dosage required to inhibit Mor analgesia by 50% ([2]; sc)	ED50 (95% confidence limits) in the hot plate [3]
CO[C@]12CC[C@@]3(C[C@@H]1[C@](C)(O)C(C)(C)C)[C@H]1Cc4ccc(O)c5c4[C@@]3(CCN1CC1CC1)[C@H]2O5 [Buprenorphine]	0.00693 mg/kg	antagonised Mor analgesia	1.33 mg/kg	–
CN1CC[C@]23c4c5ccc(O)c4O[C@H]2[C@@H](O)C=C[C@H]3[C@H]1C5 [Morphine]	–	–	–	5.81 mg/kg

Reference: patent US5849915A (priority 1996, dated 1998)
